In patent publication US10688032B2, “Emulsions having UV sunscreen factors and carnosines” (Symrise AG, priority 2015, dated 2020):

How the values were obtained:
[1] = tested on: glucose-6-phosphate dehydrogenase (G6PDH); experiment: G6PDH activity on human fibroblasts (enzymatic method of Okada); format: cell-based; details: for G6PDH after 3 d / G6PDH after 6 d: conc. 0.001 % w/v, compared to blank sample = 100
Source text: The enzyme glucose-6-phosphate dehydrogenase (G6PDH) catalyzes the first step of the so-called “pentose pathway”, in which an important DNA component, namely deoxyribose, is formed. Glucose 6-phosphate (G6P) is thereby converted into 6-phosphogluconate (6PG) by means of G6PDH. At the same time, the coenzyme NADP required thereby is reduced to NADPH2, which in turn is able to catalyze a large number of other biological reactions such as, for example, the recycling of glutathione or lipid synthesis. Reduced glutathione protects many enzymes which have SH groups and cells against oxidative stress, such as, for example, the action of UV. The G6PDH content is thus an important parameter for cell protection and skin renewal. G6PDH activity was determined in vitro on human fibroblasts by the enzymatic method of Okada, while the DNA content was determined by the Desaulniers method. The results of 3 series of measurements with triple determination are given in %-rel. compared to a blank sample.

[2] = tested on: type I collagen; experiment: Inhibition of the glycation of collagen (Schiff's bases, fluorescence at 430 nm); format: biochemical; details: with glucose, 21 days at 45° C.; control with glucose 100, control without glucose 46
Procedure: The suspensions were then centrifuged and the content of Schiff's bases in the supernatant liquid was determined by fluorescence measurement at 430 nm. The results are again based on the control as standards (without extract and without glucose).

[3] = tested on: human fibroblasts; experiment: DNA content of human fibroblasts (Desaulniers method); format: cell-based; details: conc. 0.001 % w/v, compared to blank sample = 100
Procedure: G6PDH activity was determined in vitro on human fibroblasts by the enzymatic method of Okada, while the DNA content was determined by the Desaulniers method. The results of 3 series of measurements with triple determination are given in %-rel. compared to a blank sample.

[4] = tested on: human fibroblasts; experiment: Stimulation of the synthesis of dermal macromolecules (GAG) in collagen gel containing human fibroblasts; format: cell-based; details: 0.5% by weight FCS + 0.01% by weight substance; for Area 7 days / Area 14 days / Density 14 days: collagen gel; for Density 14 days: relative density 0=clear or white, 1=black; for GAG content 7 days / GAG content 14 days: relative value of the gray stage (0=white to 255=black), perifibroblast area
Procedure: The measuring method is based on staining macromolecules in a culture of human fibroblasts which, with type I collagen, forms a collagen gel or collagen lattice fibers. Certain regions of those fibers are quantified by means of staining reagents for the proportion of the mentioned macromolecules.
For that purpose, a suspension of human fibroblasts was mixed with a solution of type I collagen (1-2 mg/ml). This mixture was incubated in a defined nutrient medium (DMEM=Dulbecco minimum essential medium, Life Technologie Sarl) comprising 0.5 or 2% by weight fetal calf serum (FCS) for 14 days at 37° C. in a 5% CO2 atmosphere in Petri dishes (5 ml per dish) with the addition of different concentrations of the plant extracts to be tested.
The kinetics of the collagen gel […] was determined 2 to 3 times per week by measuring two perpendicular diameters on each collagen gel using a microscope with an image analysis system. The size of the area is shown in cm^2 in Table 8. After incubation for 14 days, the density of the collagen gel was determined by image analysis with a light source of visible light, by comparatively analyzing different gray stages. This is a relative determination of the density (0=clear or white and 1=black), which cannot be given a unit.
After an incubation period of 7 and 14 days, biopsies (tissue samples) were taken and histological sections of the collagen gel containing human fibroblasts were obtained. The synthesis of macromolecules was analyzed and quantified by the staining of glycosaminoglycan with PAS Alcian blue, for example from SIGMA, by the periodic acid-Schiff method (PAS) described in: Mowry R W, Anal. NY Adad. Sci. 106 Art 2, 402, 1963. The stimulation of the synthesis of macromolecules was evaluated in the immediate vicinity of fibroblasts. This zone is also referred to as the “perifibroblast area”.
The “perifibroblast” secretion, or the secretion of fibroblasts into the periphery, was quantified by an image analyzer by means of a microscope. Reactive structures in the “perifibroblast area” were detected, and the different gray stages were comparatively determined. The values of the gray stages were thereby subdivided from 0=white to 255=black. These parameters are directly proportional to the intensity of the synthesis of macromolecules and thus to the GAG content of the fibroblasts.
The results of the values of these parameters are shown in Table 3 below and are to be regarded directly as representative values for the synthesis activity of the fibroblasts. The content of GAGs is described as a relative value of the gray stage.

[5] = biological target: pancreas elastase (Sus scrofa, UniProt P00772); experiment: Inhibition of elastase activity; format: biochemical; details: 0.3% by weight; 30 minutes at room temperature; relative to control = 0%
Sequence of pancreas elastase (P00772 27-266): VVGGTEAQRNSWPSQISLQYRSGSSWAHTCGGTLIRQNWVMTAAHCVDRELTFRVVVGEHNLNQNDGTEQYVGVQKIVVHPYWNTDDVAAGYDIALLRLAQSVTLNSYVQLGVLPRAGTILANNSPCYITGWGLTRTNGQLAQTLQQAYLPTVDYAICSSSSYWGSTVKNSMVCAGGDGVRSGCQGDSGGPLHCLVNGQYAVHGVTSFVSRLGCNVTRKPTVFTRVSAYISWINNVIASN
Procedure: In order to determine the effectiveness of the plant extract in inhibiting the release of elastase, pancreas elastase (a serine protease) was studied and, as substrate, elastin was labeled with a chromogenic synthetic substrate. The system was incubated with the active ingredients for 30 minutes at room temperature and then, after centrifugation, the optical density of the dye at 410 nm was determined. The amount of extracts used was 0.3% by weight. The results are given relative to a control as standard (=0%); a1-antitrypsin was used as the standard.

[6] = tested on: human fibroblasts and human keratinocytes; experiment: Inhibition of apoptosis induced by a deficiency of growth factors (cell count, BrdU ELISA of cytoplasmic DNA fragments); format: cell-based; details: for Content of DNA fragments / Cell count: conc. 0.001 % w/v; for Content of DNA fragments: BrdU in cytoplasmic DNA fragments, based on a million cells, control = 100; for Cell count: medium without fetal calf serum, in comparison to the control = 100
Procedure: The ability of carnosines to prevent apoptosis induced by a deficiency of growth factors in human skin cells was studied. These tests were carried out in vitro on human fibroblasts and human keratinocytes. The human cells were cultivated in a nutrient medium (DMEM=Dulbecco minimum essential medium from Life Technologie Sarl) with 10% fetal calf serum (from Dutcher). Bromodeoxyuridine (BrdU) was added to the nutrient medium; it was incorporated into the DNA and later served for detection of the DNA fragments in the cytoplasm. After an incubation period of two days, the nutrient medium was replaced by nutrient medium (DMEM) without fetal calf serum. The active substance to be tested was added. For comparison, a cell sample without active substance to be tested was incubated.
After a further incubation period of one or two days at 37° C., the cells were recovered by trypsinization according to the method of Dunnebacke and Zitcer described in: Cell and tissue culture, Ed.: J. Paul, Churchill Livingstone, 1975, p. 226. After the trypsinization, the cells were centrifuged and counted. Then the content of BrdU in the DNA fragments from the cytoplasm was determined by means of the ELISA test (ELISA kit from Roche). The content of BrdU is a measure of the DNA fragments which have passed from the nucleus, the cell core, into the cytoplasm. The results were based on a million cells and given in percent in comparison to the control.

[7] = Biochem. J. 264(3), p. 863-869 (1989); cited from earlier work
[8] = Membran & Cell Biol. 12(1), p. 89-99 (1998); cited from earlier work

Compound	G6PDH after 3 d [1] [%-rel.]	G6PDH after 6 d [1] [%-rel.]	Elastase inhibition [5] [%]	Inhibition of the glycation of collagen [2] [%]	DNA after 3 d [3] [%-rel.]	DNA after 6 d [3] [%-rel.]	Area 7 days [4] [cm2]	Area 14 days [4] [cm2]	Density 14 days [4]	GAG content 7 days [4]	GAG content 14 days [4]	Content of DNA fragments [6] [%]	Cell count [6] [%]	capture of ROS [7]	G6PDH activity (in words) [1]	capture of alpha-beta-unsaturated aldehydes [8]	apoptosis and content of free DNA fragments in the cytoplasm (in words) ([6]; human cell cultures)
CCCCC(CC)COC(=O)C(C#N)=C(c1ccccc1)c1ccccc1 (centres unmarked) [Octocrinyl, reference compound]	89	85			95	90											
CCCCCCOC(=O)c1ccccc1C(=O)c1ccc(N(CC)CC)cc1O [Uvinul A, 2-(4-diethylamino-2-hydroxybenzoyl)-benzoic acid hexyl ester, reference compound]	88	81			97	93											
NCCC(=O)N[C@@H](Cc1cnc[nH]1)C(=O)O [carnosine]														capable of capturing ROS	increases the activity of G6PDH production	able to capture alpha-beta-unsaturated aldehydes	counteracts apoptosis

Now from value to molecule, other results behind:

G6PDH after 3 d [1] [%-rel.]	G6PDH after 6 d [1] [%-rel.]	Elastase inhibition [5] [%]	Compound	Inhibition of the glycation of collagen [2] [%]	DNA after 3 d [3] [%-rel.]	DNA after 6 d [3] [%-rel.]	Area 7 days [4] [cm2]	Area 14 days [4] [cm2]	Density 14 days [4]	GAG content 7 days [4]	GAG content 14 days [4]	Content of DNA fragments [6] [%]	Cell count [6] [%]	capture of ROS [7]	G6PDH activity (in words) [1]	capture of alpha-beta-unsaturated aldehydes [8]	apoptosis and content of free DNA fragments in the cytoplasm (in words) ([6]; human cell cultures)
104	109	28	C[N+](C)(C)C[C@H](O)CC(=O)O.[Cl-] [Carnitine*HCl]	65	106	118	9.9	5.8	0.25	11.8	13.3	88	118				
105	109	32	NCCC(=O)N[C@@H](Cc1cnc[nH]1)C(=O)O [L-Carnosine]	68	111	120	10.1	6.0	0.25	12.1	15.1	85	129				
